Assay results from article PMC9851200, “Multiparameter phenotypic screening for endogenous TFEB and TFE3 translocation identifies novel chemical series modulating lysosome function” (Autophagy, 2022).
Entries after “also recorded” stand apart in the source; their conditions may differ. Read-outs that look alike come from different tables or passages of the source.

How the values were obtained:
[1] = tested on: endogenous TFE3; test: TFE3 nuclear translocation, immunocytochemistry high-content imaging; type: cell-based
[2] = tested on: endogenous TFEB; test: TFEB nuclear translocation, immunocytochemistry high-content imaging; type: cell-based
[3] = tested on: SH-SY5Y cells
Description: The PKIS2 Library was supplied by The Structural Genomics Consortium at the University of North Carolina at Chapel Hill.

[4] = tested on: SH-SY5Y cells; details: human
[5] = tested on: SH-SY5Y cells; details: human; remark: listed apart in the source
Protocol: (§1) Total cell lysis with 5 µL 5% Triton-X 100 (Sigma-Aldrich, T8787) is used as a positive control for the assay and toxicity is expressed as a percentage of luminescence under DMSO conditions.

[6] = tested on: SH-SY5Y cells; test: Nuclear count from microscopy images (cellular growth and toxicity); details: PKIS2 primary screening
[7] = tested on: SH-SY5Y cells; test: AK (adenylate kinase) release ToxiLight cytotoxicity assay; details: for AK: PKIS2 primary screening
Protocol: as §1

[8] = tested on: SH-SY5Y cells; test: Chemotype enrichment analysis of PKIS2 primary screen hit categories; details: PKIS2 primary screening, hit category
[9] = PKIS2 primary screening, DQ Red BSA intensity
[10] = PKIS2 primary screening, DQ Red BSA spot count

Row | SMILES | TFE3 % ([1]; PKIS2 primary screening) [%] | TFEB % ([2]; PKIS2 primary screening) [%] | Nuclear Count [6] | AK [7] | DQ Intensity [3, 9] | DQ Spot [3, 10] | Outcome [8] | further results
1 | CC(=O)Nc1n[nH]c2ncc(-c3ccccc3)cc12 [SB-548492] |  |  |  |  |  |  |  | TFE3 % [1]: 13.46%; TFEB % [2]: 4.73%; DQ Intensity [3]: 81.01; DQ Spot [3]: 101.49; Nuclear Count ([4]; SH-SY5Y cells, 24 h, 1 µM): 87.30; AK ([5]; SH-SY5Y cells, 24 h, 1 µM): 85.75
2 | CCCC(=O)Nc1n[nH]c2ncccc12 [SB-601436] |  |  |  |  |  |  |  | TFE3 % [1]: 11.89%; TFEB % [2]: 6.83%; DQ Intensity [3]: 119.21; DQ Spot [3]: 109.95; Nuclear Count ([4]; SH-SY5Y cells, 24 h, 1 µM): 111.13; AK ([5]; SH-SY5Y cells, 24 h, 1 µM): 122.64
3 | Nc1n[nH]c2cnc(-c3ccccc3)cc12 [SB-642124] |  |  |  |  |  |  |  | TFE3 % [1]: 5.79%; TFEB % [2]: 10.03%; DQ Intensity [3]: 94.71; DQ Spot [3]: 98.20; Nuclear Count ([4]; SH-SY5Y cells, 24 h, 1 µM): 121.57; AK ([5]; SH-SY5Y cells, 24 h, 1 µM): 86.32
4 | O=c1cc(N2CCOCC2)nc2n(Cc3cccc(Cl)c3Cl)ccn12 [UNC10225167A] | 15.96 | 3.69 | 101.24 |  |  |  |  | DQ Intensity ([3]; PKIS2 primary screening): 91.40; DQ Spot ([3]; PKIS2 primary screening): 112.20; AK [5]: 151.05
5 | CN(C)CC(O)COc1ccc(Nc2nccc(-c3cnn4nc(N5CCOCC5)ccc34)n2)cc1 (stereo not shown) [UNC10225197A] |  |  |  | 142.32 |  |  |  | TFE3 % [1]: 12.57%; TFEB % [2]: 3.40%; DQ Intensity [3]: 107.33; DQ Spot [3]: 110.97; Nuclear Count [4]: 103.35
6 | CC(C)(CN)c1nc(-c2ccc(Cl)c(O)c2)c(-c2ccncc2)[nH]1.O=C(O)C(F)(F)F [UNC10225206A] | 7.79 | 8.68 |  | 94.20 | 164.60 | 127.42 | DQ Only | Nuclear Count [4]: 76.70
7 | CC(C)(CN)c1nc(-c2ccc(Cl)c(O)c2)c(-c2ccncc2)[nH]1.O=C(O)C(F)(F)F [UNC10225206B] | 3.59 | 5.00 |  | 116.08 | 150.27 | 119.19 | DQ Only | Nuclear Count [4]: 109.20
8 | CCCCc1nn2ncccc2c1-c1ccnc(NC2CC2)n1 [UNC10225247A] | 6.63 | 2.59 |  | 99.47 |  |  |  | DQ Intensity ([3]; PKIS2 primary screening): 77.25; DQ Spot ([3]; PKIS2 primary screening): 98.14; Nuclear Count [4]: 77.00
9 | CC(C)Oc1ccc2c(-c3ccnc(Nc4ccc(N5CCN(C)CC5)cc4)n3)cnn2n1 [UNC10225414A] | 8.69 | 3.20 |  | 109.44 |  |  |  | DQ Intensity ([3]; PKIS2 primary screening): 74.33; DQ Spot ([3]; PKIS2 primary screening): 86.73; Nuclear Count [4]: 127.68
10 | O=C(c1ccc(-c2cc(-c3c[nH]nc3-c3ccccn3)ccn2)cc1)N1CCOCC1 [UNC10225421A] | 13.41 | 4.79 | 121.31 | 76.85 | 150.15 | 98.06 | DQ Only | 
11 | FC(F)(F)c1ccc(-c2ncn(CCCN3CCOCC3)c2-c2ccncc2)cc1 [UNC10225425A] | 9.69 | 5.42 | 88.34 | 109.44 | 74.41 | 77.10 | LYSO TOXIC | 
12 | CN(C)Cc1ccc(-c2ccc3c(Nc4ccc(Oc5ccccn5)cc4)ccnc3c2)o1 [UNC10225428A] | 34.27 | 28.26 | 92.33 | 81.74 | 85.61 | 47.88 | LYSO TOXIC | 
13 | COc1ccc(-c2oc3ncnc(N)c3c2-c2ccc(OC)cc2)cc1 [UNC10225431A] | 9.25 | 4.87 | 51.87 | 79.67 | 144.39 | 120.26 | DQ Only | 
14 | Cc1ccc(C(=O)Nc2ccc(Nc3ccnc4cc(-c5nccs5)ccc34)cc2O)cc1.Cl [UNC10225432A] | 56.52 | 8.56 | 89.90 | 74.29 | 38.26 | 36.88 | LYSO TOXIC | 
15 | CCNCC(Cc1ccccc1)NC(=O)c1cc(Br)c(-c2ccnc3[nH]ccc23)s1.Cl.Cl (stereo not shown) [UNC10225436A] | 35.73 | 20.72 | 80.17 | 108.80 | 185.61 | 102.66 | DQ / TFEB/TFE3 | 
16 | COc1cccc(-c2cc(-c3c[nH]nc3-c3ccccn3)ccn2)c1 [UNC10225448A] | 7.93 | 6.19 | 116.22 | 109.46 | 60.35 | 69.14 | LYSO TOXIC | 
17 | CCCCc1nn2ncccc2c1-c1ccnc(Nc2ccc(N3CCN(C)CC3)cc2)n1 [UNC10225453A] | 20.14 | 12.73 |  | 108.81 |  |  |  | DQ Intensity ([3]; PKIS2 primary screening): 158.78; DQ Spot ([3]; PKIS2 primary screening): 101.42; Nuclear Count [4]: 74.87
18 | CN(C)S(=O)(=O)c1cc(-c2ccc3nccc(-c4cccc(S(N)(=O)=O)c4)c3c2)cnc1N [UNC10225457A] | 3.13 | 2.30 | 78.66 | 74.17 | 100.41 | 77.18 | LYSO TOXIC | 
19 | Cl.Oc1cccc(Nc2ccnc3cc(-c4ccncc4)ccc23)c1 [UNC10225467A] | 10.65 | 5.92 | 88.58 | 125.78 | 34.95 | 51.42 | LYSO TOXIC | 
20 | Cc1ccc(O)cc1Nc1ccnc2ccc(C(C)(C)C)cc12 [UNC10225479A] | 19.57 | 23.46 | 78.69 | 75.82 | 91.49 | 60.27 | LYSO TOXIC | 
21 | COc1cc2nccc(Nc3ccc(Oc4ccccc4)cc3)c2cc1OC.Cl [UNC10225483A] | 50.12 | 23.88 | 95.56 | 74.22 | 58.49 | 52.29 | LYSO TOXIC | 
22 | CN1CCN(Cc2cccc(-c3ccc4c(Nc5ccc(Oc6ccccc6)cc5)ccnc4c3)c2)CC1 [UNC10225484A, reference compound] | 42.01 | 9.01 | 88.62 | 84.86 | 129.44 | 68.80 | LYSO TOXIC | TFE3 translocation (in words) ([1]; SH-SY5Y, 24 h treatment): some TFEB and TFE3 translocation; also recorded: modest TFEB and 3 translocation at 2 µM; TFEB translocation (in words) ([2]; SH-SY5Y, 24 h treatment): some TFEB and TFE3 translocation; also recorded: modest TFEB and 3 translocation at 2 µM; DQ Red BSA spot count / active lysosome count (in words) ([3]; SH-SY5Y, 24 h treatment): reduction in active lysosome spots; also recorded: correlated drop in DQ Red BSA spot count; Cellular toxicity (AK release and nuclear count, in words) ([7]; SH-SY5Y, 24 h treatment): no indication of cellular toxicity
23 | COc1cc2ncnc(Nc3ccc4nc(-c5ccccc5)[nH]c4c3)c2cc1OC.Cl [UNC10225504A] | 30.79 | 2.24 | 107.73 | 94.98 | 98.46 | 113.89 | TFE3 | 
